Reference: patent US20250320206A1, “STAT6 DEGRADERS” (Gilead Sciences, Inc., priority 2024, published 2025)

Tests used:
STAT6 = molecular target: T1, STAT6 (Homo sapiens, UniProt P42226); experiment: Stat6 Degrader Assay (HiBiT based, HeLa LgBiT clone 4.14); format: cell-based; conditions: HeLa LgBiT clone 4.14 HiBiT-STAT6, 4-24 h incubation; values given for compounds with >80% Emax; geometric mean; read-out: STAT6 degradation DC50
T1 construct: These cells express endogenous STAT6; host or cells: HeLa LgBiT clone 4.14
T1 sequence (P42226 1-847): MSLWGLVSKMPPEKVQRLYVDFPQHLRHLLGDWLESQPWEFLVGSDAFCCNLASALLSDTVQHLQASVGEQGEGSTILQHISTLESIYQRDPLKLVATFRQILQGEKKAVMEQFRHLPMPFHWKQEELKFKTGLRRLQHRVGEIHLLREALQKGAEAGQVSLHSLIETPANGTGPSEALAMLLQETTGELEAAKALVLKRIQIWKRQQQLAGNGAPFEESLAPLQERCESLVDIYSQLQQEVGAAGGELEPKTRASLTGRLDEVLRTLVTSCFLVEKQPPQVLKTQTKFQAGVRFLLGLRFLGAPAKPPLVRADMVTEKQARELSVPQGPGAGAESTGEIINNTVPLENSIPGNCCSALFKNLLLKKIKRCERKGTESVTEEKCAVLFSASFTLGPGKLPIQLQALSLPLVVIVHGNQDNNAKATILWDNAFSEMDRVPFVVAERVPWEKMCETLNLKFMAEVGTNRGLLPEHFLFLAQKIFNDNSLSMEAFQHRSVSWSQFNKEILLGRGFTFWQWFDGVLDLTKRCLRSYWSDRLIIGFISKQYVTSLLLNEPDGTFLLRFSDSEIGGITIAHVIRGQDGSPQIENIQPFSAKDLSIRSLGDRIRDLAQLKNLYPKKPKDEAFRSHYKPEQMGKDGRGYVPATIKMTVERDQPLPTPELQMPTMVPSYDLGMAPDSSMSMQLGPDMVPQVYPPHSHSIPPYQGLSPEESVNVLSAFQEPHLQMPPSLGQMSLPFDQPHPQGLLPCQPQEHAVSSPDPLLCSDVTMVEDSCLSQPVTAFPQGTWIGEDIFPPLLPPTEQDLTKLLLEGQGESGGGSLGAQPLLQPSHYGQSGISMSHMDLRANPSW
Procedure, shortened: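 Luminescence from HiBiT-STAT6 complementing stably expressed LgBiT in HeLa clone 4.14 reports remaining STAT6 protein. Cells (5000/well) exposed to compound for 4-24 h at 37° C; read 0.5 h after Nano-Glo addition. 100% degradation window set with 50 μM terfenadine; percent degradation plotted against concentration.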

[1] = system: Eotaxin-3 release in human whole blood stimulated with IL-4; experiment: Human Whole Blood Eotaxin-3 Assay (IL-4 stimulated eotaxin-3 release); format: cell-based; conditions: IL-4 stimulation, 48 h, values given for compounds with >80% Emax, geometric mean
Procedure, shortened: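 Eotaxin-3 (CCL26) release measured by MSD kit in plasma supernatant after 48 h IL-4 stimulation ([…]) of human whole blood. Compounds added in triplicate 4-fold dilutions 2 h before stimulation; 0.5% DMSO final, 37° C, 5% CO2.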

| SMILES | DC50 (STAT6) [nM] | EC50 [1] [nM] |
| --- | --- | --- |
| C[C@H]1CN(Cc2ccc3c(c2)C(C)(C)C(=O)N3[C@@H]2CCC(=O)NC2=O)CCN1CC1CCN(C(=O)c2ccc(C3CCN([C@@H](C)c4cc5c(-n6ccc7c(c6=O)CCN7)ccnc5n4C)CC3)cc2)CC1 (single isomer, unassigned) [Example 3u186] | 3.5 | 4.6 |
| CNc1cc(=O)n(-c2ccnc3c2cc([C@H](C)N2CC=C(c4c(C)cc(C(=O)N5CCC(CN6CCN(c7ccc8c(c7)C7(CC7)C(=O)N8[C@@H]7CCC(=O)NC7=O)CC6)CC5)cc4F)CC2)n3C)cc1F (single isomer, unassigned) [Example 3u292] | 5.1 | 6.9 |
| CNc1ccn(-c2ccnc3c2cc(CN2CC=C(c4c(C)cc(C(=O)N(C)c5ccc(C6CCN(Cc7ccc8c(c7)C(C)(C)C(=O)N8C7CCC(=O)NC7=O)CC6)cc5)cc4F)CC2)n3C)c(=O)c1 (stereo not drawn) [Example 3u228, N-(4-(1-((1-(2,6-dioxopiperidin-3-yl)-3,3-dimethyl-2-oxoindolin-5-yl)methyl)-piperidin-4-yl)phenyl)-3-fluoro-N,5-dimethyl-4-(1-((1-methyl-4-(4-(methylamino)-2-oxopyridin-1 (2H)-yl)-1H-pyrrolo[2,3-b]pyridin-2-yl)methyl)-1,2,3,6-tetrahydropyridin-4-yl)benzamide] | 0.2 | 1.2 |
| CNc1ccn(-c2ccnc3c2cc([C@H](C)N2CC=C(c4c(F)cc(C(=O)N5CCC(CN6CCN(Cc7ccc8c(c7)n(C7CC7)c(=O)n8C7CCC(=O)NC7=O)C[C@@H]6C)CC5)cc4F)CC2)n3C)c(=O)c1 (stereo partly drawn) [Example 3u210, 3-(3-cyclopropyl-5-(((S)-4-((1-(3,5-difluoro-4-(1-((S)-1-(1-methyl-4-(4-(methylamino)-2-oxopyridin-1 (2H)-yl)-1H-pyrrolo[2,3-b]pyridin-2-yl)ethyl)-1,2,3,6-tetrahydropyridin-4-yl)benzoyl)-piperidin-4-yl)methyl)-3-methylpiperazin-1-yl)methyl)-2-oxo-2,3-dihydro-1H-benzo[d]imidazol-1-yl)piperidine-2,6-dione] | 0.5 | 1.1 |
| CNc1cc(=O)n(-c2ccnc3c2cc([C@H](C)N2CC=C(c4c(C)cc(C(=O)N5CCC(CN6CCN(Cc7ccc8c(c7)n(C7CC7)c(=O)n8C7CCC(=O)NC7=O)C[C@@H]6C)CC5)cc4F)CC2)n3C)cc1F (stereo partly drawn) [Example 3u118, 3-(3-cyclopropyl-5-(((S)-4-((1-(3-fluoro-4-(1-((S)-1-(4-(5-fluoro-4-(methylamino)-2-oxopyridin-1 (2H)-yl)-1-methyl-1H-pyrrolo[2,3-b]pyridin-2-yl)ethyl)-1,2,3,6-tetrahydropyridin-4-yl)-5-methylbenzoyl)piperidin-4-yl)methyl)-3-methylpiperazin-1-yl)methyl)-2-oxo-2,3-dihydro-1H-benzo[d]imidazol-1-yl)piperidine-2,6-dione] | 1.2 | 2.2 |
| CNc1ccn(-c2ccnc3c2cc(CN2CC=C(c4c(F)cc(C(=O)N5CCC(CN6CCN(Cc7ccc8c(c7)C(C)(C)C(=O)N8C7CCC(=O)NC7=O)C[C@@H]6C)CC5)cc4F)CC2)n3C)c(=O)c1 (stereo partly drawn) [Example 3u45, 3-(5-(((S)-4-((1-(3,5-difluoro-4-(1-((1-methyl-4-(4-(methylamino)-2-oxopyridin-1 (2H)-yl)-1H-pyrrolo[2,3-b]pyridin-2-yl)methyl)-1,2,3,6-tetrahydropyridin-4-yl)benzoyl)piperidin-4-yl)methyl)-3-methylpiperazin-1-yl)methyl)-3,3-dimethyl-2-oxoindolin-1-yl)piperidine-2,6-dione] | 3.9 | 4.5 |
| CNc1ccn(-c2ccnc3c2cc(CN2CCC(c4c(F)cc(C(=O)N5CCC(CN6CCN(c7ccc8c(c7)C7(CC7)C(=O)N8C7CCC(=O)NC7=O)CC6)CC5)cc4F)CC2)n3C)c(=O)c1 (stereo not drawn) [Example 3u149, 3-(5′-(4-((1-(3,5-difluoro-4-(1-((1-methyl-4-(4-(methylamino)-2-oxopyridin-1 (2H)-yl)-1H-pyrrolo[2,3-b]pyridin-2-yl)methyl)piperidin-4-yl)benzoyl)piperidin-4-yl)methyl)piperazin-1-yl)-2′-oxospiro[cyclopropane-1,3′-indolin]-1′-yl)piperidine-2,6-dione] | 33.8 | 27.6 |
| CNc1ccn(-c2ccnc3c2cc(CN2CCC(c4c(C)cc(C(=O)N5CCC(CN6CCN(Cc7ccc8c(c7)n(C)c(=O)n8[C@@H]7CCC(=O)NC7=O)CC6)CC5)cc4F)CC2)n3C)c(=O)c1 (single isomer, unassigned) [Example 3u159] | 12.8 | 52.6 |
| CNc1cc(=O)n(-c2ccnc3c2cc([C@H](C)N2CC=C(c4c(C)cc(C(=O)N5CCC(CN6CCN(Cc7ccc8c(c7)C(C)(C)C(=O)N8[C@H]7CCC(=O)NC7=O)CC6)CC5)cc4F)CC2)n3C)cc1F (single isomer, unassigned) [Example 3u88] | 3.3 | 12.9 |
| CNc1cc(=O)n(-c2ccnc3c2cc([C@H](C)N2CC=C(c4c(C)cc(C(=O)N5CCC(CN6CCN(c7ccc8c(c7)C7(CC7)C(=O)N8[C@H]7CCC(=O)NC7=O)CC6)CC5)cc4F)CC2)n3C)cc1F (single isomer, unassigned) [Example 3u291] | 5.7 | 21.7 |
| CNc1ccn(-c2ccnc3c2cc([C@H](C)N2CC=C(c4c(C)cc(C(=O)N5CCC(CN6CCN(Cc7ccc8c(c7)C7(CC7)C(=O)N8[C@@H]7CCC(=O)NC7=O)C[C@@H]6C)CC5)cc4F)CC2)n3C)c(=O)c1 (single isomer, unassigned) [Example 3u192] | 0.6 | 0.9 |
| CNc1cc(=O)n(-c2ccnc3c2cc(CN2CCC(c4c(F)cc(C(=O)N5CCC(CN6CCN(Cc7ccc8c(c7)n(C)c(=O)n8C7CCC(=O)NC7=O)CC6)CC5)cc4F)CC2)n3C)cc1F (stereo not drawn) [Example 3u26, 3-(5-((4-((1-(3,5-difluoro-4-(1-((4-(5-fluoro-4-(methylamino)-2-oxopyridin-1 (2H)-yl)-1-methyl-1H-pyrrolo[2,3-b]pyridin-2-yl)methyl)piperidin-4-yl)benzoyl)piperidin-4-yl)methyl)piperazin-1-yl)methyl)-3-methyl-2-oxo-2,3-dihydro-1H-benzo[d]imidazol-1-yl)piperidine-2,6-dione] | 2.9 | 3.4 |
| CNc1cc(=O)n(-c2ccnc3c2cc(CN2CC=C(c4c(F)cc(C(=O)N5CCC(CN6CCN(Cc7ccc8c(c7)C(C)(C)C(=O)N8C7CCC(=O)NC7=O)C[C@@H]6C)CC5)cc4F)CC2)n3C)cc1F (stereo partly drawn) [Example 3u77, 3-(5-(((S)-4-((1-(3,5-difluoro-4-(1-((4-(5-fluoro-4-(methylamino)-2-oxopyridin-1 (2H)-yl)-1-methyl-1H-pyrrolo[2,3-b]pyridin-2-yl)methyl)-1,2,3,6-tetrahydropyridin-4-yl)benzoyl)piperidin-4-yl)methyl)-3-methylpiperazin-1-yl)methyl)-3,3-dimethyl-2-oxoindolin-1-yl)piperidine-2,6-dione] | 16.1 | 24.1 |
| CNc1cc(=O)n(-c2ccnc3c2cc([C@H](C)N2CC=C(c4c(C)cc(C(=O)N(C)c5ccc(N6CCC(Cc7ccc8c(c7)n(C)c(=O)n8[C@@H]7CCC(=O)NC7=O)CC6)nc5)cc4F)CC2)n3C)cc1F (single isomer, unassigned) [Example 3u243] | 0.3 | 0.4 |
| Cc1cc(C(=O)N2CCC(CN3CCN(Cc4ccc5c(c4)n(C)c(=O)n5C4CCC(=O)NC4=O)CC3)CC2)cc(F)c1C1=CCN([C@@H](C)c2cc3c(-n4ccc5c(c4=O)CCN5)ccnc3n2C)CC1 (stereo partly drawn) [Example 3u22, 3-(5-((4-((1-(3-fluoro-5-methyl-4-(1-((S)-1-(1-methyl-4-(4-oxo-1,2,3,4-tetrahydro-5H-pyrrolo[3,2-c]pyridin-5-yl)-1H-pyrrolo[2,3-b]pyridin-2-yl)ethyl)-1,2,3,6-tetrahydropyridin-4-yl)-benzoyl)piperidin-4-yl)methyl)piperazin-1-yl)methyl)-3-methyl-2-oxo-2,3-dihydro-1H-benzo[d]-imidazol-1-yl)piperidine-2,6-dione] | 0.7 | 0.8 |
